According to patent US9868697B2, “Phytosphingosine derivatives, and composition comprising same for preventing and treating inflammatory skin diseases, autoimmune diseases, and hyperkeratosis diseases” (THE CATHOLIC UNIVERSITY OF KOREA INDUSTRY—ACADEMIC …, priority 2011, dated 2018):
Entries after “also recorded” stand apart in the source; their conditions may differ.

Tests used:
NF-κB [1] = test: Phosphorylation of IκBα and NF-κB in TPA-stimulated skin keratinocytes, western blot; assay type: cell-based, human; settings: for inhibitory effect on the NF-κB activation: overall conclusion of the NF-κB tests
Protocol: (§1) Herein, in order to verify the effect of novel synthetic YG-II-6 compounds and their lead compound, phytosphingosine, on phosphorylation and degradation of IκBα, which is a protein that inhibits the activity of NF-κB by forming a complex with NF-κB, skin keratinocytes were pre-treated with respective compounds for 1 hour and then stimulated with 400 nM TPA for 15 minutes and 30 minutes, respectively. In order to verify the phosphorylation of NF-κB and the expression level of NF-κB in the cytoplasm and nucleus, skin keratinocytes were stimulated for 15 minutes and 1 hour, respectively. The results were confirmed by western blot analysis. In addition, the nuclear translocation of NF-κB was confirmed through reaction with antibodies, fluorescent labeling, and direct observation by microscopy. In order to verify the activity of the respective compounds at the transcription stage, cells were transfected with plasmids labeled with NF-κB luciferase reporter, and the luciferase activity was measured by the luciferase assay. In addition, the phosphorylation of IκBα and NF-κB was measured in the PTA-stimulated mouse skin.

NF-κB [2] = test: NF-κB luciferase reporter assay, TPA stimulation; assay type: cell-based, human; settings: FIG. 1C
Protocol: as §1

mouse skin tissues = test: Apoptosis in skin tissues of TPA-induced mice, FITC staining; assay type: in vivo; settings: FIGS. 7C to 7E
Protocol: (§2) Therefore, in order to verify the degree of the cytotoxicity of the YG-II-6 compounds, their cytotoxicity on human-derived keratinocytes was confirmed by using the WST-1 reagent. In order to verify the effects of the compounds on the expression of proteins associated with apoptosis, the keratinocytes were treated with corresponding concentrations of the respective compound samples and stimulated with TPA for 24 hours, and the expression levels of proteins were confirmed by western blot assay. In addition, human-derived keratinocytes and primary culture skin keratinocytes were treated with the compounds, and after 24 hours, subjected to FITC staining and TUNEL assay, and the skin tissues isolated from TPA-induced mice was subjected to FITC staining

[3] = tested on: human-derived keratinocytes; test: Cytotoxicity on human-derived keratinocytes, WST-1 reagent; assay type: cell-based; settings: WST-1, FIG. 7A
Protocol: as §2

ERK1/2, p38, and JNK = test: MAP kinase phosphorylation in TPA-stimulated skin keratinocytes, western blot; assay type: cell-based, human; settings: 400 nM TPA for 15 minutes, FIG. 4
Protocol: In order to verify the effects of the respective compounds on MAP kinase, skin keratinocytes were treated with the respective compounds for 1 hour, and then stimulated with 400 nM TPA for 15 minutes. The level of phosphorylation was confirmed by western blot assay.

NF-κB [4] = test: Nuclear translocation of NF-κB, immunostaining, TPA-stimulated skin keratinocytes; assay type: cell-based, human; settings: TPA stimulation, FIG. 1B
Protocol: as §1

[5] = tested on: human-derived keratinocytes and primary culture skin keratinocytes; test: Apoptosis in keratinocytes, FITC staining and TUNEL assay; assay type: cell-based; settings: 24 hours, FIGS. 7C to 7E
Protocol: as §2

SMILES | inhibitory effect on the NF-κB activation (NF-κB [1]) | NF-κB luciferase activity increased by TPA stimulation (NF-κB [2]) | apoptosis in the mouse skin tissues (mouse skin tissues) | phosphorylation of IκBα and NF-κB increased by TPA stimulation (NF-κB [1]; skin keratinocytes, 1 hour pre-treatment, 400 nM TPA, FIG. 1A) | concentration at which cytotoxicity was shown [3] | phosphorylation of ERK1/2, p38, and JNK (ERK1/2, p38, and JNK) | nuclear translocation of NF-κB (NF-κB [4]) | apoptosis in the TPA-stimulated cells [5]
CCCCCCCCCCCCCC[C@@H](O)[C@@H](O)[C@H](CO)NC(=O)/C=C/C(=O)O [fYG-II-6, (E)-4-oxo-4-(((2S,3S,4R)-1,3,4-trihydroxyoctadecan-2-yl)amino)but-2-enoic acid] | relatively greater inhibitory effect than mYG-II-6 |  |  |  |  |  |  | 
CCCCCCCCCCCCCC[C@@H](O)[C@@H](O)[C@@H](N)CO [phytosphingosine] | inhibited the activation of NF-κB | inhibited the luciferase activity | induced apoptosis | inhibited the phosphorylation of IκBα and NF-κB | 5 to 10 µM | relatively weaker inhibitory activity than the YG-II-6 compounds; also recorded: no or little inhibitory effect | inhibited the nuclear translocation of NF-κB | induced apoptosis
